The source made the active and inactive calls.
Experiments:
K562 = assay: Cytotoxicity against human K562 cells after 48 hrs by trypan blue dye exclusion assay; type: functional; conditions: K562, 48 h
MOLT-4 = assay: Cytotoxicity against human MOLT4 cells after 48 hrs by trypan blue dye exclusion assay; type: functional; conditions: MOLT-4, 48 h
NCI-H322M = assay: Cytotoxicity against human NCI-H322M cells after 48 hrs by trypan blue dye exclusion assay; type: functional
NCI-H522 = assay: Cytotoxicity against human NCI-H522 cells after 48 hrs by trypan blue dye exclusion assay; type: functional; conditions: NCI-H522, 48 h
HCT-116 = assay: Cytotoxicity against human HCT116 cells after 48 hrs by trypan blue dye exclusion assay; type: functional; conditions: HCT-116, 48 h
SW-620 = assay: Cytotoxicity against human SW620 cells after 48 hrs by trypan blue dye exclusion assay; type: functional; conditions: SW-620, 48 h
SF-295 = assay: Cytotoxicity against human SF295 cells after 48 hrs by trypan blue dye exclusion assay; type: functional; conditions: SF-295, 48 h
SK-MEL-2 = assay: Cytotoxicity against human SK-MEL-2 cells after 48 hrs by trypan blue dye exclusion assay; type: functional; conditions: SK-MEL-2, 48 h
IGROV-1 = assay: Cytotoxicity against human IGROV1 cells after 48 hrs by trypan blue dye exclusion assay; type: functional; conditions: IGROV-1, 48 h
OVCAR-3 = assay: Cytotoxicity against human OVCAR3 cells after 48 hrs by trypan blue dye exclusion assay; type: functional; conditions: OVCAR-3, 48 h
MDA-MB-231 = assay: Cytotoxicity against human MDA-MB-231 cells after 48 hrs by trypan blue dye exclusion assay; type: functional; conditions: MDA-MB-231, 48 h
[1] = Cytotoxicity against human Hs 578T cells after 48 hrs by trypan blue dye exclusion assay; type: functional
MDA-MB-468 = assay: Cytotoxicity against human MDA-MB-468 cells after 48 hrs by trypan blue dye exclusion assay; type: functional; conditions: MDA-MB-468, 48 h
Paracentrotus lividus = assay: Antimitotic activity against Paracentrotus lividus embryo assessed as cleavage alteration at 2 fold less effective threshold concentration after 2.5 to 6 hrs; type: functional, organism-based
Jurkat = assay: Cytotoxicity against human Jurkat cells; type: functional, cell-based

With `COc1ccc2c(c1)OC1=C(C(=O)OC1)C2c1cc(OC)c2c(c1)OCO2` (stereo unspecified) the GI50 (K562) was 0.033 µM, the GI50 (MOLT-4) was 0.065 µM and the GI50 (NCI-H322M) was 0.0713 µM. The GI50 (NCI-H522) was < 0.01 µM, the GI50 (HCT-116) was 0.0374 µM and the GI50 (SW-620) was 0.0392 µM. For the same compound, the GI50 (SF-295) was 0.0202 µM, the GI50 (SK-MEL-2) was 0.0343 µM and the GI50 (IGROV-1) was 0.0624 µM. For the same compound, the GI50 (OVCAR-3) was 0.0209 µM, the TGI (OVCAR-3) was 0.0446 µM and the GI50 (MDA-MB-231) was 0.0614 µM. The GI50 [1] was 0.0308 µM, the GI50 (MDA-MB-468) was 0.0263 µM and the Activity (Paracentrotus lividus) was “inactive”. The IC50 (Jurkat) was 0.055 µM.

Reference: ChEMBL document CHEMBL2010711, “Synthesis and comparative evaluation of 4-oxa- and 4-aza-podophyllotoxins as antiproliferative microtubule destabilizing agents” (Bioorg Med Chem Lett, 2012)
